Laboratory results published in ChEMBL document CHEMBL1155011, “Structure-activity relationships of the cycloalkanol ethylamine scaffold: discovery of selective norepinephrine reuptake inhibitors” (J Med Chem, 2008).

What was measured:
[1] = biological target: T1, Sodium-dependent dopamine transporter (Homo sapiens, UniProt Q01959); experiment: Displacement of [3H]WIN-35428 from human recombinant dopamine transporter expressed in CHO cells at 1000 nM; type: cell-based
[2] = biological target: T2, Sodium-dependent serotonin transporter (Homo sapiens, UniProt P31645); experiment: Inhibition of 5HT uptake at human SERT expressed in human JAR cells at 1000 nM; type: cell-based
Target sequence in this assay (P31645 whole entry, looked up): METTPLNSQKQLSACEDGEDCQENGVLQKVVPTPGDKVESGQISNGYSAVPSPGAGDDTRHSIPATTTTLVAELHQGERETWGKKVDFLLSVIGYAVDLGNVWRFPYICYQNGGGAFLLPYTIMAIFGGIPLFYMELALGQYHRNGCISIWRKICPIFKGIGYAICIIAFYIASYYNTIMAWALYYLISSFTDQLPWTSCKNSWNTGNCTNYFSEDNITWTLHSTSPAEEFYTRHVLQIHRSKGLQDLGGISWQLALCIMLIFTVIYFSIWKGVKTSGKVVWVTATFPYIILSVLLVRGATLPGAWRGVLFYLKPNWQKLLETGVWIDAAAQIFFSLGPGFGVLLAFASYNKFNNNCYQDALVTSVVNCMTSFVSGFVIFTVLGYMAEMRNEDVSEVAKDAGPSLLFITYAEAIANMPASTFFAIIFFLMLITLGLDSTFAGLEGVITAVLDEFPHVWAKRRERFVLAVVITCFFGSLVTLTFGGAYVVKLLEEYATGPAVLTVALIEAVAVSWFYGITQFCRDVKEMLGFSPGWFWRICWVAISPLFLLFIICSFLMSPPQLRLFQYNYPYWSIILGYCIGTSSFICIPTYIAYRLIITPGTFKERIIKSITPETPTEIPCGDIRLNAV

[3] = biological target: T3, Sodium-dependent noradrenaline transporter (Homo sapiens, UniProt P23975)
T3 sequence (P23975 whole entry): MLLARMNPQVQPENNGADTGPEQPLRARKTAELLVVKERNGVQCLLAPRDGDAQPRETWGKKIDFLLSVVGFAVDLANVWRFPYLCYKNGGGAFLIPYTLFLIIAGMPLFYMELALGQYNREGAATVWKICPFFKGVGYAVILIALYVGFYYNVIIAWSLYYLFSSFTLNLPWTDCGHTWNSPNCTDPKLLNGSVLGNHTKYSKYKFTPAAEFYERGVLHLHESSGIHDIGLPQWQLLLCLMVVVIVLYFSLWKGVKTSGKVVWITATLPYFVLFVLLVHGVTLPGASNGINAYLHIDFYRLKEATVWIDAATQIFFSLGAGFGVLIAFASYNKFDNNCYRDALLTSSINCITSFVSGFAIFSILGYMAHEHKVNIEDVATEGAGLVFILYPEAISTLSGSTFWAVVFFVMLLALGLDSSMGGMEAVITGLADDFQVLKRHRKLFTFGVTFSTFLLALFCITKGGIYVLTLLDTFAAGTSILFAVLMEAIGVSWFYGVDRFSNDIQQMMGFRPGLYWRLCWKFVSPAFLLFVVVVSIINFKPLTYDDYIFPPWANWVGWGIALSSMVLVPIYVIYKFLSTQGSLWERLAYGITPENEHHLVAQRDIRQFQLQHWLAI

[4] = biological target: T3, Sodium-dependent noradrenaline transporter; experiment: biochemical
[5] = biological target: T3, Sodium-dependent noradrenaline transporter; experiment: Displacement of [3H]nisoxetine from human norepinephrine transporter expressed in MDCK-Net6 cells at 1000 nM; type: cell-based
[6] = biological target: T3, Sodium-dependent noradrenaline transporter; experiment: Inhibition of norepinephrine uptake at human norepinephrine transporter expressed in MDCK-Net6 cells at 1000 nM; type: cell-based
Homo sapiens = species on record: Homo sapiens; experiment: Selectivity ratio of IC50 for human NET over IC50 for human SERT
Transporter = Transporter (Rattus norvegicus, UniProt Q63380)
Chain of Transporter (Q63380 whole entry): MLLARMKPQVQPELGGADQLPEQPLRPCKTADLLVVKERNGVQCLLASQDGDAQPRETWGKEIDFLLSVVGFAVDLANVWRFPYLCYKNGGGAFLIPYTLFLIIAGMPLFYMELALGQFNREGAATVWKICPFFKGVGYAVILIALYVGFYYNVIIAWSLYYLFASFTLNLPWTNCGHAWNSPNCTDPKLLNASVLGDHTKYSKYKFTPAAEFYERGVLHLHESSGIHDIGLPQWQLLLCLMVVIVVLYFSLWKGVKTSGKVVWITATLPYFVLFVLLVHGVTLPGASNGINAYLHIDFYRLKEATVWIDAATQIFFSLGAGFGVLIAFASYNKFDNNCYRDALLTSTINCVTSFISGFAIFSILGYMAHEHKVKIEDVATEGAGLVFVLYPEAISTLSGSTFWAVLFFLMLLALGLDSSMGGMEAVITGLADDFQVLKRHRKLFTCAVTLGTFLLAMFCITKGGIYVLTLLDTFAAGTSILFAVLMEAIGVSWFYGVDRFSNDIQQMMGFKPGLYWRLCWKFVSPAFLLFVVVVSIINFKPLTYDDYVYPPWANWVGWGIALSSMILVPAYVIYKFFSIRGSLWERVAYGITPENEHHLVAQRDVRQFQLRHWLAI
Description: Inhibition of norepinephrine uptake at rat brain norepinephrine transporter

[7] = biological target: T2, Sodium-dependent serotonin transporter; type: cell-based, JAR
Target sequence in this assay (P31645 whole entry): as the sequence (P31645 whole entry, looked up) above

[8] = biological target: T1, Sodium-dependent dopamine transporter; experiment: biochemical

T1 sequence (Q01959 whole entry): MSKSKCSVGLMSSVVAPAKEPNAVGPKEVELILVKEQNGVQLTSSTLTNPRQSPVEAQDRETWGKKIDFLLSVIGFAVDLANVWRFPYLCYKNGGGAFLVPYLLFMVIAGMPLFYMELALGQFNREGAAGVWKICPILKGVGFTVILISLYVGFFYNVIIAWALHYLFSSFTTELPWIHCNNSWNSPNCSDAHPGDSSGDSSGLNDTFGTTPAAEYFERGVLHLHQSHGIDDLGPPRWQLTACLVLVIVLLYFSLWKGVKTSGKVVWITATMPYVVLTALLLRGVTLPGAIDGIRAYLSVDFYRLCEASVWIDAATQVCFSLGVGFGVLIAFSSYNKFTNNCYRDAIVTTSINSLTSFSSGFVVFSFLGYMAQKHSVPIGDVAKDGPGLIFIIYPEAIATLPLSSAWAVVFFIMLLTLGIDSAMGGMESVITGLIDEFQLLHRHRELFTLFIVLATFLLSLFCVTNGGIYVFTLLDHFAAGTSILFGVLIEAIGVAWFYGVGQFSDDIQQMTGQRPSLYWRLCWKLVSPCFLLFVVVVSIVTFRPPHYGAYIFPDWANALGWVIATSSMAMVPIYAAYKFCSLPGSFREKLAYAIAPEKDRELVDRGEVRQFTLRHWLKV

Row | SMILES | Activity [1] [%] | inhibition [2] [%] | IC50 [3] [µM] | Ki [4] [µM] | Activity [5] [%] | inhibition [6] [%] | Ratio IC50 (Homo sapiens) | IC50 (Transporter) [µM] | IC50 [7] [µM] | Ki [8] [µM]
1 | CN1CCN(CC(c2ccccc2F)C2(O)CCCCC2)CC1 (configuration not stated) | – | – | – | – | 34 | 19 | – | – | – | –
2 | COc1cccc(C(CN(C)C)C2(O)CCCCC2)c1 (configuration not stated) | 9 | – | 0.208 | 0.316 | – | – | 0.42 | 0.62 | 0.088 | –
3 | COc1cccc(C(CN2CCN(C)CC2)C2(O)CCCCC2)c1 (configuration not stated) | 4 | 14 | 0.6 | 0.514 | – | – | – | – | – | –
4 | CN(C)C[C@@H](c1cccc(Cl)c1)C1(O)CCCCC1 | 17 | – | – | – | – | – | – | – | – | –
5 | CN(C)CC(c1cccc(C(F)(F)F)c1)C1(O)CCCCC1 (configuration not stated) | 15 | – | 0.032 | 0.021 | – | – | 16.7 | 0.36 | 0.534 | –
6 | CN1CCN(CC(c2cccc(C(F)(F)F)c2)C2(O)CCCCC2)CC1 (configuration not stated) | 6 | 28 | 0.092 | 0.061 | – | – | – | – | – | –
7 | CN1CCN(CC(c2ccc(F)cc2)C2(O)CCCCC2)CC1 (configuration not stated) | 0 | 32 | 1.45 | 1.38 | – | – | – | – | – | –
8 | CN1CCN(C[C@H](c2cccc(Cl)c2)C2(O)CCCCC2)CC1 | – | 9 | 0.029 | 0.014 | – | – | – | – | – | 0.073
9 | CN1CCN(CC(c2ccc(OC(F)(F)F)cc2)C2(O)CCCCC2)CC1 (configuration not stated) | 13 | – | 0.575 | 0.417 | – | – | – | – | 1.21 | –

Now from value to compound:

Row | Activity [1] [%] | inhibition [2] [%] | IC50 [3] [µM] | Ki [4] [µM] | Activity [5] [%] | inhibition [6] [%] | Ratio IC50 (Homo sapiens) | IC50 (Transporter) [µM] | IC50 [7] [µM] | Ki [8] [µM] | SMILES
10 | 2 | 8 | 0.87 | 0.745 | – | – | – | – | – | – | COc1cccc(C(CN2CCNCC2)C2(O)CCCCC2)c1 (configuration not stated)
11 | – | – | 0.038 | 0.018 | – | – | – | – | 4.96 | 0.045 | OC1(C(CN2CCNCC2)c2cccc(Cl)c2)CCCCC1 (configuration not stated)
12 | 13 | 3 | 0.14 | 0.117 | – | – | – | – | – | – | OC1([C@H](CN2CCNCC2)c2cccc(OC(F)(F)F)c2)CCCCC1
13 | 4 | 13 | 0.094 | 0.058 | – | – | – | – | – | – | OC1(C(CN2CCNCC2)c2cccc(C(F)(F)F)c2)CCCCC1 (configuration not stated)
14 | 15 | 11 | 1.29 | 0.544 | – | – | – | – | – | – | OC1([C@@H](CN2CCNCC2)c2cccc(OC(F)(F)F)c2)CCCCC1
15 | 22 | 29 | 1.5 | 1.03 | – | – | – | – | – | – | OC1(C(CN2CCNCC2)c2ccc(F)cc2)CCCCC1 (configuration not stated)
16 | 13 | 3 | 0.284 | 0.14 | – | – | – | – | – | – | OC1(C(CN2CCNCC2)c2cccc(OC(F)(F)F)c2)CCCCC1 (configuration not stated)
17 | 35 | – | – | 0.717 | – | 29 | – | – | 1.53 | – | OC1(C(CN2CCNCC2)c2ccc(Cl)cc2)CCCCC1 (configuration not stated)
